Assay results from publication PMC4984525 (Cancer, 2011).

Experiment: Plasma pharmacokinetics of ARRY-520
Format: in vivo, human
Conditions: for coefficient of variation (CV) for CL: inter-patient variability; for MRT / Tmax / half-life: median (min-max)

CON(C)C(=O)N1N=C(c2cc(F)ccc2F)S[C@@]1(CCCN)c1ccccc1 [ARRY-520]
coefficient of variation (CV) for CL (Schedule 1, Cycle 1): 50.7% | coefficient of variation (CV) for CL (Schedule 1, Cycle 2): 77.1% | time plasma concentrations maintained above 2 ng/mL (Schedule 1, following a single infusion, postinitiation of infusion, all cohorts): greater than 7 days | time geometric mean plasma concentrations maintained above 2 ng/mL (Schedule 2, all cohorts): more than 14 days | overall ratio of AUC0–24 on Day 5 compared to Day 1 (Schedule 2, dosing at 48-hour intervals): 2.23 | AUC(0-t) (human, plasma, intravenous, 0.8 mg/m^2, AUC0–24, Schedule 2, Cycle 1 Day 1, 0.8 mg/m^2 (N=3), geometric mean (geometric %CV)): 116 ng·h/mL | AUC(0-t) (human, plasma, intravenous, 0.8 mg/m^2, AUC0–24, Schedule 2, Cycle 1 Day 5, 0.8 mg/m^2 (N=3), geometric mean (geometric %CV)): 179 ng·h/mL | clearance (human, plasma, intravenous, 0.8 mg/m^2, CL, Schedule 2, Cycle 1 Day 1, 0.8 mg/m^2 (N=3), geometric mean (geometric %CV)): 109 mL/min | clearance (human, plasma, intravenous, 0.8 mg/m^2, CL, Schedule 2, Cycle 1 Day 5, 0.8 mg/m^2 (N=3), geometric mean (geometric %CV)): 33.8 mL/min | Cmax (human, plasma, intravenous, 0.8 mg/m^2, Cmax, Schedule 2, Cycle 1 Day 1, 0.8 mg/m^2 (N=3), geometric mean (geometric %CV)): 19.5 ng/mL | Cmax (human, plasma, intravenous, 0.8 mg/m^2, Cmax, Schedule 2, Cycle 1 Day 5, 0.8 mg/m^2 (N=3), geometric mean (geometric %CV)): 25.3 ng/mL | MRT (human, plasma, intravenous, 0.8 mg/m^2, MRT, Schedule 2, Cycle 1 Day 5, 0.8 mg/m^2 (N=3)): 130 h | Tmax (human, plasma, intravenous, 0.8 mg/m^2, Tmax, Schedule 2, Cycle 1 Day 1, 0.8 mg/m^2 (N=3)): 1 h | Tmax (human, plasma, intravenous, 0.8 mg/m^2, Tmax, Schedule 2, Cycle 1 Day 5, 0.8 mg/m^2 (N=3)): 1.08 h | Vd (human, plasma, intravenous, 0.8 mg/m^2, Vss, Schedule 2, Cycle 1 Day 1, 0.8 mg/m^2 (N=3), mean (%CV)): 295 L | Vd (human, plasma, intravenous, 0.8 mg/m^2, Vss, Schedule 2, Cycle 1 Day 5, 0.8 mg/m^2 (N=3), mean (%CV)): 193 L | half-life (human, plasma, intravenous, 0.8 mg/m^2, t1/2, Schedule 2, Cycle 1 Day 1, 0.8 mg/m^2 (N=3)): 29.8 h | half-life (human, plasma, intravenous, 0.8 mg/m^2, t1/2, Schedule 2, Cycle 1 Day 5, 0.8 mg/m^2 (N=3)): 92.5 h | AUC(0-t) (human, plasma, intravenous, 1.2 mg/m^2, AUC0–24, Schedule 2, Cycle 1 Day 1, 1.2 mg/m^2 (N=6), geometric mean (geometric %CV)): 133 ng·h/mL | AUC(0-t) (human, plasma, intravenous, 1.2 mg/m^2, AUC0–24, Schedule 2, Cycle 1 Day 5, 1.2 mg/m^2 (N=6), geometric mean (geometric %CV)): 320 ng·h/mL | clearance (human, plasma, intravenous, 1.2 mg/m^2, CL, Schedule 2, Cycle 1 Day 1, 1.2 mg/m^2 (N=6), geometric mean (geometric %CV)): 130 mL/min | clearance (human, plasma, intravenous, 1.2 mg/m^2, CL, Schedule 2, Cycle 1 Day 5, 1.2 mg/m^2 (N=6), geometric mean (geometric %CV)): 15.8 mL/min | Cmax (human, plasma, intravenous, 1.2 mg/m^2, Cmax, Schedule 2, Cycle 1 Day 1, 1.2 mg/m^2 (N=6), geometric mean (geometric %CV)): 18.8 ng/mL | Cmax (human, plasma, intravenous, 1.2 mg/m^2, Cmax, Schedule 2, Cycle 1 Day 5, 1.2 mg/m^2 (N=6), geometric mean (geometric %CV)): 24.3 ng/mL | MRT (human, plasma, intravenous, 1.2 mg/m^2, MRT, Schedule 2, Cycle 1 Day 5, 1.2 mg/m^2 (N=6)): 134 h | Tmax (human, plasma, intravenous, 1.2 mg/m^2, Tmax, Schedule 2, Cycle 1 Day 1, 1.2 mg/m^2 (N=6)): 1.09 h | Tmax (human, plasma, intravenous, 1.2 mg/m^2, Tmax, Schedule 2, Cycle 1 Day 5, 1.2 mg/m^2 (N=6)): 1 h | Vd (human, plasma, intravenous, 1.2 mg/m^2, Vss, Schedule 2, Cycle 1 Day 1, 1.2 mg/m^2 (N=6), mean (%CV)): 363 L | Vd (human, plasma, intravenous, 1.2 mg/m^2, Vss, Schedule 2, Cycle 1 Day 5, 1.2 mg/m^2 (N=6), mean (%CV)): 239 L | half-life (human, plasma, intravenous, 1.2 mg/m^2, t1/2, Schedule 2, Cycle 1 Day 1, 1.2 mg/m^2 (N=6)): 25.6 h | half-life (human, plasma, intravenous, 1.2 mg/m^2, t1/2, Schedule 2, Cycle 1 Day 5, 1.2 mg/m^2 (N=6)): 94.9 h | AUC(0-t) (human, plasma, intravenous, 1.5 mg/m^2, AUC0–24, Schedule 2, Cycle 1 Day 1, 1.5 mg/m^2 (N=6), geometric mean (geometric %CV)): 264 ng·h/mL | AUC(0-t) (human, plasma, intravenous, 1.5 mg/m^2, AUC0–24, Schedule 2, Cycle 1 Day 5, 1.5 mg/m^2 (N=6), geometric mean (geometric %CV)): 667 ng·h/mL | clearance (human, plasma, intravenous, 1.5 mg/m^2, CL, Schedule 2, Cycle 1 Day 1, 1.5 mg/m^2 (N=6), geometric mean (geometric %CV)): 98.3 mL/min | clearance (human, plasma, intravenous, 1.5 mg/m^2, CL, Schedule 2, Cycle 1 Day 5, 1.5 mg/m^2 (N=6), geometric mean (geometric %CV)): 18.5 mL/min | Cmax (human, plasma, intravenous, 1.5 mg/m^2, Cmax, Schedule 2, Cycle 1 Day 1, 1.5 mg/m^2 (N=6), geometric mean (geometric %CV)): 57.9 ng/mL | Cmax (human, plasma, intravenous, 1.5 mg/m^2, Cmax, Schedule 2, Cycle 1 Day 5, 1.5 mg/m^2 (N=6), geometric mean (geometric %CV)): 134 ng/mL | MRT (human, plasma, intravenous, 1.5 mg/m^2, MRT, Schedule 2, Cycle 1 Day 5, 1.5 mg/m^2 (N=6)): 119 h | Tmax (human, plasma, intravenous, 1.5 mg/m^2, Tmax, Schedule 2, Cycle 1 Day 1, 1.5 mg/m^2 (N=6)): 1 h | Tmax (human, plasma, intravenous, 1.5 mg/m^2, Tmax, Schedule 2, Cycle 1 Day 5, 1.5 mg/m^2 (N=6)): 1.02 h | Vd (human, plasma, intravenous, 1.5 mg/m^2, Vss, Schedule 2, Cycle 1 Day 1, 1.5 mg/m^2 (N=6), mean (%CV)): 251 L | Vd (human, plasma, intravenous, 1.5 mg/m^2, Vss, Schedule 2, Cycle 1 Day 5, 1.5 mg/m^2 (N=6), mean (%CV)): 169 L | half-life (human, plasma, intravenous, 1.5 mg/m^2, t1/2, Schedule 2, Cycle 1 Day 1, 1.5 mg/m^2 (N=6)): 26.1 h | half-life (human, plasma, intravenous, 1.5 mg/m^2, t1/2, Schedule 2, Cycle 1 Day 5, 1.5 mg/m^2 (N=6)): 82.2 h | AUC(0-t) (human, plasma, intravenous, 1.8 mg/m^2, AUC0–24, Schedule 2, Cycle 1 Day 1, 1.8 mg/m^2 (N=2), geometric mean): 208 ng·h/mL | AUC(0-t) (human, plasma, intravenous, 1.8 mg/m^2, AUC0–24, Schedule 2, Cycle 1 Day 5, 1.8 mg/m^2 (N=2), geometric mean): 608 ng·h/mL | clearance (human, plasma, intravenous, 1.8 mg/m^2, CL, Schedule 2, Cycle 1 Day 1, 1.8 mg/m^2 (N=2), geometric mean): 130 mL/min | clearance (human, plasma, intravenous, 1.8 mg/m^2, CL, Schedule 2, Cycle 1 Day 5, 1.8 mg/m^2 (N=2), geometric mean): 18.3 mL/min | Cmax (human, plasma, intravenous, 1.8 mg/m^2, Cmax, Schedule 2, Cycle 1 Day 1, 1.8 mg/m^2 (N=2), geometric mean): 24.4 ng/mL | Cmax (human, plasma, intravenous, 1.8 mg/m^2, Cmax, Schedule 2, Cycle 1 Day 5, 1.8 mg/m^2 (N=2), geometric mean): 53.6 ng/mL | MRT (human, plasma, intravenous, 1.8 mg/m^2, MRT, Schedule 2, Cycle 1 Day 5, 1.8 mg/m^2 (N=2)): 114 h | Tmax (human, plasma, intravenous, 1.8 mg/m^2, Tmax, Schedule 2, Cycle 1 Day 1, 1.8 mg/m^2 (N=2)): 1 h | Tmax (human, plasma, intravenous, 1.8 mg/m^2, Tmax, Schedule 2, Cycle 1 Day 5, 1.8 mg/m^2 (N=2)): 1 h | Vd (human, plasma, intravenous, 1.8 mg/m^2, Vss, Schedule 2, Cycle 1 Day 1, 1.8 mg/m^2 (N=2), mean): 306 L | Vd (human, plasma, intravenous, 1.8 mg/m^2, Vss, Schedule 2, Cycle 1 Day 5, 1.8 mg/m^2 (N=2), mean): 127 L | half-life (human, plasma, intravenous, 1.8 mg/m^2, t1/2, Schedule 2, Cycle 1 Day 1, 1.8 mg/m^2 (N=2)): 27.1 h | half-life (human, plasma, intravenous, 1.8 mg/m^2, t1/2, Schedule 2, Cycle 1 Day 5, 1.8 mg/m^2 (N=2)): 80 h | AUC(0-inf) (human, plasma, intravenous, 2.5 mg/m^2): 1650 ng·h/mL | clearance (human, plasma, intravenous, 2.5 mg/m^2, CL, Schedule 1, Cycle 1 Day 1, 2.5 mg/m^2 (N=3), geometric mean (geometric %CV)): 44.8 mL/min | Cmax (human, plasma, intravenous, 2.5 mg/m^2, Cmax, Schedule 1, Cycle 1 Day 1, 2.5 mg/m^2 (N=3), geometric mean (geometric %CV)): 132 ng/mL | MRT (human, plasma, intravenous, 2.5 mg/m^2, MRT, Schedule 1, Cycle 1 Day 1, 2.5 mg/m^2 (N=3)): 92.7 h | Tmax (human, plasma, intravenous, 2.5 mg/m^2, Tmax, Schedule 1, Cycle 1 Day 1, 2.5 mg/m^2 (N=3)): 2 h | Vd (human, plasma, intravenous, 2.5 mg/m^2, Vss, Schedule 1, Cycle 1 Day 1, 2.5 mg/m^2 (N=3), mean (%CV)): 405 L
